# Laboratory results: ChEMBL document CHEMBL3868615, “Decahydrobenzoquinolin-5-one sigma receptor ligands: Divergent development of both sigma 1 and sigma 2 receptor selective examples” (Bioorg Med Chem Lett, 2016)
# Tests used:
# Mu-type opioid receptor = Mu-type opioid receptor (Homo sapiens, UniProt P35372); assay: Displacement of [3H]DAMGO from human MOR expressed in HEK cells after 90 mins by microbeta scintillation counting method; format: cell-based, HEK293
# [1] = molecular target: Kappa-type opioid receptor (Homo sapiens, UniProt P41145); assay: Displacement of [3H]U69593 from KOR (unknown origin) expressed in HEKT cells measured after 90 mins by microbeta scintillation counting method; format: cell-based
# [2] = molecular target: Sigma non-opioid intracellular receptor 1 (Cavia porcellus, UniProt Q60492); assay: Displacement of [3H]pentazocine from guinea pig sigma1 receptor measured after 90 mins by microbeta scintillation counting method
# PC-12 [3] = assay: Selectivity ratio of Ki for sigma2 receptor in rat PC12 cells to Ki for guinea pig sigma1 receptor; format: cell-based
# [4] = molecular target: T1, 5-hydroxytryptamine receptor 1A (Homo sapiens, UniProt P08908); assay: Displacement of [3H]Way100635 from human 5-HT1A receptor expressed in CHO cells measured after 90 mins by microbeta scintillation counting method; format: cell-based
# T1 sequence (P08908 whole entry): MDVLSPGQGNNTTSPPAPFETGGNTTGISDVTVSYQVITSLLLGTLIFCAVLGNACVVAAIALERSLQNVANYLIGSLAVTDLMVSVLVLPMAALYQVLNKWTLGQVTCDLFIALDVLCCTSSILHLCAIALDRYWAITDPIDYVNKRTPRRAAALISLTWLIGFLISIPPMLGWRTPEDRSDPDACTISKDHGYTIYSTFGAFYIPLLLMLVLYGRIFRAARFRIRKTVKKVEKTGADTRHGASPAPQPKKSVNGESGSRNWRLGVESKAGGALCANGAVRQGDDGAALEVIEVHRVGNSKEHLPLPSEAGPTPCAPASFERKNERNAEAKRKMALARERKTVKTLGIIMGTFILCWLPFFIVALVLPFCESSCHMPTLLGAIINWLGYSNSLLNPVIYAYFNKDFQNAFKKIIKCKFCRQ
# [5] = molecular target: 5-hydroxytryptamine receptor 1B (Homo sapiens, UniProt P28222); assay: Displacement of [3H]5-CT from human 5-HT1B receptor expressed in HEK cells measured after 90 mins by microbeta scintillation counting method; format: cell-based, HEK293
# [6] = molecular target: 5-hydroxytryptamine receptor 1D (Homo sapiens, UniProt P28221); assay: Displacement of [3H]5-CT from human 5-HT1D receptor expressed in HEK-T cells measured after 90 mins by microbeta scintillation counting method; format: cell-based
# [7] = molecular target: 5-hydroxytryptamine receptor 1E (Homo sapiens, UniProt P28566); assay: Displacement of [3H]5-HT from human 5-HT1E receptor expressed in HEK cells measured after 90 mins by microbeta scintillation counting method; format: cell-based, HEK293
# [8] = molecular target: 5-hydroxytryptamine receptor 2A (Homo sapiens, UniProt P28223); assay: Displacement of [3H]Ketanserin from 5-HT2A receptor (unknown origin) measured after 90 mins by microbeta scintillation counting method
# [9] = molecular target: 5-hydroxytryptamine receptor 2B (Homo sapiens, UniProt P41595); assay: Displacement of [3H]LSD from human 5-HT2B receptor expressed in HEK cells measured after 90 mins by microbeta scintillation counting method; format: cell-based, HEK293
# [10] = molecular target: 5-hydroxytryptamine receptor 2C (Homo sapiens, UniProt P28335); assay: Displacement of [3H]Mesulergine from human 5-HT2C receptor expressed in Flp-IN HEK cells measured after 90 mins by microbeta scintillation counting method; format: cell-based, HEK293
# [11] = molecular target: 5-hydroxytryptamine receptor 6 (Homo sapiens, UniProt P50406); assay: Displacement of [3H]LSD from human 5-HT6 receptor expressed in HEK cells measured after 90 mins by microbeta scintillation counting method; format: cell-based, HEK293
# [12] = molecular target: Alpha-1A adrenergic receptor (Homo sapiens, UniProt P35348); assay: Displacement of [3H]Prazosin from human Alpha1A receptor measured after 90 mins by microbeta scintillation counting method
# [13] = molecular target: Alpha-1B adrenergic receptor (Homo sapiens, UniProt P35368); assay: Displacement of [3H]Prazosin from human Alpha1B receptor expressed in HEK-T cells measured after 90 mins by microbeta scintillation counting method; format: cell-based
# [14] = molecular target: Alpha-1D adrenergic receptor (Homo sapiens, UniProt P25100); assay: Displacement of [3H]Prazosin from human Alpha1D receptor measured after 90 mins by microbeta scintillation counting method
# [15] = molecular target: Alpha-2A adrenergic receptor (Homo sapiens, UniProt P08913); assay: Displacement of [3H]Rauwolscine from human Alpha2A receptor expressed in MDCK cells measured after 90 mins by microbeta scintillation counting method; format: cell-based
# [16] = molecular target: Alpha-2B adrenergic receptor (Homo sapiens, UniProt P18089); assay: Displacement of [3H]Rauwolscine from human Alpha2B receptor expressed in HEK-T cells measured after 90 mins by microbeta scintillation counting method; format: cell-based
# [17] = molecular target: Alpha-2C adrenergic receptor (Homo sapiens, UniProt P18825); assay: Displacement of [3H]Rauwolscine from human Alpha2C receptor expressed in MDCK cells measured after 90 mins by microbeta scintillation counting method; format: cell-based
# D(1A) dopamine receptor = D(1A) dopamine receptor (Homo sapiens, UniProt P21728); assay: Displacement of [3H]SCH23390 from human D1 receptor expressed in HEK-T cells measured after 90 mins by microbeta scintillation counting method; format: cell-based
# D(2) dopamine receptor = D(2) dopamine receptor (Homo sapiens, UniProt P14416); assay: Displacement of [3H]N-methylspiperone from human D2 receptor expressed in fibroblast cells measured after 90 mins by microbeta scintillation counting method; format: cell-based
# D(1B) dopamine receptor = D(1B) dopamine receptor (Homo sapiens, UniProt P21918); assay: Displacement of [3H]SCH23390 from human D5 receptor expressed in HEK-T cells measured after 90 mins by microbeta scintillation counting method; format: cell-based
# [18] = molecular target: Sodium-dependent dopamine transporter (Homo sapiens, UniProt Q01959); assay: Displacement of [3H]WIN35428 from human DAT expressed in HEK cells measured after 90 mins by microbeta scintillation counting method; format: cell-based, HEK293
# [19] = Displacement of [3H]Muscimol from GABAA receptor in rat brain measured after 90 mins by microbeta scintillation counting method; format: tissue-based
# Histamine H1 receptor = Histamine H1 receptor (Homo sapiens, UniProt P35367); assay: Displacement of [3H]Pyrilamine from human H1 receptor expressed in HEK cells measured after 90 mins by microbeta scintillation counting method; format: cell-based, HEK293
# Histamine H2 receptor = Histamine H2 receptor (Homo sapiens, UniProt P25021); assay: Binding affinity to H2 receptor (unknown origin) expressed in HEKT cells measured after 90 mins by radioligand binding assay; format: cell-based
# [20] = molecular target: Muscarinic acetylcholine receptor M1 (Homo sapiens, UniProt P11229); assay: Binding affinity to human M1 receptor expressed in CHO cells measured after 90 mins by radioligand binding assay; format: cell-based
# [21] = molecular target: Muscarinic acetylcholine receptor M4 (Homo sapiens, UniProt P08173); assay: Binding affinity to human M4 receptor expressed in CHO cells measured after 90 mins by radioligand binding assay; format: cell-based
# [22] = molecular target: Sodium-dependent noradrenaline transporter (Homo sapiens, UniProt P23975); assay: Displacement of [3H]Nisoxetine from human NET expressed in HEK cells measured after 90 mins by microbeta scintillation counting method; format: cell-based, HEK293
# [23] = molecular target: Sodium-dependent serotonin transporter (Homo sapiens, UniProt P31645); assay: Displacement of [3H]Citalopram from human SERT expressed in HEK cells measured after 90 mins by microbeta scintillation counting method; format: cell-based, HEK293
# PC-12 [24] = settings: Rattus norvegicus, 10 uM
# Chain of Alpha-2C adrenergic receptor (P18825 whole entry): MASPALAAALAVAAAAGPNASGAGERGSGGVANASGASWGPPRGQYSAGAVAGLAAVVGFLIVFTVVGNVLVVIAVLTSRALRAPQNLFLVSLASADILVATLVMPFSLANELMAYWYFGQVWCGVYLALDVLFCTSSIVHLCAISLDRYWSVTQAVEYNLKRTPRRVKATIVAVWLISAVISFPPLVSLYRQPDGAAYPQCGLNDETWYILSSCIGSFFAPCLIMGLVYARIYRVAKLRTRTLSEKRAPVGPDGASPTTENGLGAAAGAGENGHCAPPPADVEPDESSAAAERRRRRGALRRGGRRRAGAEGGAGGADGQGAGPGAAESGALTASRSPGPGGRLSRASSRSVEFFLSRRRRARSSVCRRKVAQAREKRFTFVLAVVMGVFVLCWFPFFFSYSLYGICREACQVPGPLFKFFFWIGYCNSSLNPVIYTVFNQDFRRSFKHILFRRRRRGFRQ
# Chain of 5-hydroxytryptamine receptor 1E (P28566 whole entry): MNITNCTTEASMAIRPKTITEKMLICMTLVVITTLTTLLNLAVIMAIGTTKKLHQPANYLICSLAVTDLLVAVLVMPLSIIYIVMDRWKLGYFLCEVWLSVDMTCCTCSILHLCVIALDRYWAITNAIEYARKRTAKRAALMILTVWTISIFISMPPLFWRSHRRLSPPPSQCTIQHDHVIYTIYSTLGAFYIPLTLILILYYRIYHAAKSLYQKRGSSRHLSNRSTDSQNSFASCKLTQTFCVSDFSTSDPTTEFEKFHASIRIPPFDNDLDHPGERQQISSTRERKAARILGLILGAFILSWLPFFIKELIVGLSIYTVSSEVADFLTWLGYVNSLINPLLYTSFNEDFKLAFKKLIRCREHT
# Chain of Alpha-1A adrenergic receptor (P35348 whole entry): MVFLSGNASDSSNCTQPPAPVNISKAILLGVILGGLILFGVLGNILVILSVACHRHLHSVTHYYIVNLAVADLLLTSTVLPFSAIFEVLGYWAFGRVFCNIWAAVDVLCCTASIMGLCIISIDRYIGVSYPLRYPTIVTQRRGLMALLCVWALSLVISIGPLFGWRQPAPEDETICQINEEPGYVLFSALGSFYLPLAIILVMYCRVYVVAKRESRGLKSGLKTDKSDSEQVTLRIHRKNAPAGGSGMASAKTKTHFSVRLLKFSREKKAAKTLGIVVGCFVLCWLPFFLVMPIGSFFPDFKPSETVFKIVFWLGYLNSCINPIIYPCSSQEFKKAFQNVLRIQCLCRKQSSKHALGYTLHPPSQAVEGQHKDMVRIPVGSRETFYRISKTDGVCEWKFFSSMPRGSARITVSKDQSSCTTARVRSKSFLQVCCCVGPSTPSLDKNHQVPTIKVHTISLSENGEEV
# Chain of Mu-type opioid receptor (P35372 whole entry): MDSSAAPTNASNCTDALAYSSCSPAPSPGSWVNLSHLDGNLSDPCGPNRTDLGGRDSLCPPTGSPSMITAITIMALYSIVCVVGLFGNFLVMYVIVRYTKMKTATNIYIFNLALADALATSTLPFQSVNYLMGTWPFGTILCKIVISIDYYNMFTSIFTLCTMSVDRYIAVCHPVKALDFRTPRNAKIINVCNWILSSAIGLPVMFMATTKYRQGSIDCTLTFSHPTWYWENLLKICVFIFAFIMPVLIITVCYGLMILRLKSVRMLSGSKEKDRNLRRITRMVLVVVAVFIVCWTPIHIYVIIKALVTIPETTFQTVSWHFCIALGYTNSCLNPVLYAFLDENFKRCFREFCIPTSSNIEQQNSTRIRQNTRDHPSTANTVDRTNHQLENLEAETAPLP
# Chain of 5-hydroxytryptamine receptor 2A (P28223 whole entry): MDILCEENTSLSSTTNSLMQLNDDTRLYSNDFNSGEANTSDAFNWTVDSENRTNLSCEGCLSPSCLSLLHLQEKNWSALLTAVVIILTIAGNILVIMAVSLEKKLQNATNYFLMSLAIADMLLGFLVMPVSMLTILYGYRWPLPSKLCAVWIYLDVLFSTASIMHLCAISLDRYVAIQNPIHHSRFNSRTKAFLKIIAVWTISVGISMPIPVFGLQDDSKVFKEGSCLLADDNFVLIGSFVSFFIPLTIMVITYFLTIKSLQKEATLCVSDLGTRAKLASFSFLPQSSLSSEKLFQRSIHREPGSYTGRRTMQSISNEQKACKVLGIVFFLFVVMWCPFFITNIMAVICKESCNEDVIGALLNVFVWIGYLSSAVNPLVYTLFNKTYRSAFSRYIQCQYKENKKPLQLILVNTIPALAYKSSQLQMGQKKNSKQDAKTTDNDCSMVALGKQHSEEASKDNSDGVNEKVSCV
# Chain of D(2) dopamine receptor (P14416 whole entry): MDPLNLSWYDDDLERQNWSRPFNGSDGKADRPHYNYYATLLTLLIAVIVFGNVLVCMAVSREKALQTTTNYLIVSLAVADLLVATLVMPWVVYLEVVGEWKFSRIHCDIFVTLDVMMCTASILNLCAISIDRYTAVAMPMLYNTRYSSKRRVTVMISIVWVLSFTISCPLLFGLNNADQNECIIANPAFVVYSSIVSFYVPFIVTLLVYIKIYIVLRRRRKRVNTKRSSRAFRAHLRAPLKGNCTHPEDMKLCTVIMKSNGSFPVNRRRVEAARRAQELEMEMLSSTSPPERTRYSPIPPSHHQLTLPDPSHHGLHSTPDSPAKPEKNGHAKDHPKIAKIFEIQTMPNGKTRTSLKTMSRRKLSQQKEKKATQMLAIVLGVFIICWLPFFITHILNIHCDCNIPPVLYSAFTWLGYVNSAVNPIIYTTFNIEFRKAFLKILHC
# Chain of Alpha-2B adrenergic receptor (P18089 whole entry): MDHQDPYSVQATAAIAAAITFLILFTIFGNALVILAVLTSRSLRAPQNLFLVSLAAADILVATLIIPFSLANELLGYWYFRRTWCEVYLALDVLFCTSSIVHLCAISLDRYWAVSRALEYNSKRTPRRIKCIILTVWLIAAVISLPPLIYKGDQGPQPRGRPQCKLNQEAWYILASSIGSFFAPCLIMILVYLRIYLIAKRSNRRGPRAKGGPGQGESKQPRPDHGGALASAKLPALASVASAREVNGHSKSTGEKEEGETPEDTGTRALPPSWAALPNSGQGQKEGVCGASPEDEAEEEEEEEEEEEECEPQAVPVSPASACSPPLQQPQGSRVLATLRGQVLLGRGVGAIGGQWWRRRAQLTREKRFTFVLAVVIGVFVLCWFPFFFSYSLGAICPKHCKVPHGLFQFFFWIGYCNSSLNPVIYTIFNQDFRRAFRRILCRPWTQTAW
# Chain of D(1A) dopamine receptor (P21728 whole entry): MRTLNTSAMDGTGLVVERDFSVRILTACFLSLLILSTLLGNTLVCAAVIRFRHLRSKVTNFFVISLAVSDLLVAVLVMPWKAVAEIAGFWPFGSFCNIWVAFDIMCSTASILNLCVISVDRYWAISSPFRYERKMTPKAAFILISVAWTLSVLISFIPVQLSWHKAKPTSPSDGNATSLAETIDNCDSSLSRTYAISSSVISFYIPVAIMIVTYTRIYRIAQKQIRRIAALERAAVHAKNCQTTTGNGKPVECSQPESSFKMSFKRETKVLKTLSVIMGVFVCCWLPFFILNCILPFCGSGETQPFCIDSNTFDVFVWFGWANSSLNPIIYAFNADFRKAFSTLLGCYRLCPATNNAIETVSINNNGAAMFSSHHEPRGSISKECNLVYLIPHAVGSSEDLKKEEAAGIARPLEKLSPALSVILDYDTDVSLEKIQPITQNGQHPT
# Chain of Alpha-1B adrenergic receptor (P35368 whole entry): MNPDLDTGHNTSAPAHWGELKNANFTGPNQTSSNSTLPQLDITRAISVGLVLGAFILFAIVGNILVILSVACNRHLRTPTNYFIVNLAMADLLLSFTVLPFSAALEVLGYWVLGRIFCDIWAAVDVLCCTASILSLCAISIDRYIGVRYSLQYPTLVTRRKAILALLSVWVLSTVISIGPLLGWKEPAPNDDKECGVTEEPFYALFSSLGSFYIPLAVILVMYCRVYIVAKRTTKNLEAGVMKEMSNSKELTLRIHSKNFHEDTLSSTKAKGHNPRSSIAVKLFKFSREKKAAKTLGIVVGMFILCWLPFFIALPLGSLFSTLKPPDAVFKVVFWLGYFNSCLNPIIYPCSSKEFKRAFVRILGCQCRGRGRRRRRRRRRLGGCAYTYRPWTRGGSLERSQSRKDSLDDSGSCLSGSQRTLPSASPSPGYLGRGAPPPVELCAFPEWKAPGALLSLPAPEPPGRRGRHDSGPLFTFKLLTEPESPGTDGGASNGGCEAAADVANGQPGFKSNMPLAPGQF
# Chain of Sigma non-opioid intracellular receptor 1 (Q60492 whole entry): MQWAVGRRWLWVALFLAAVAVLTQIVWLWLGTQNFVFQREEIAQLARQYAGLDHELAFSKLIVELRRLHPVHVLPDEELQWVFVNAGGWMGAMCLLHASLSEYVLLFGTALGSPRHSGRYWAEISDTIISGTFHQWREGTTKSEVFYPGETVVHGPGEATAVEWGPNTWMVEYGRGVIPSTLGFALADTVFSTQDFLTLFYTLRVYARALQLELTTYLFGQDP
# Chain of Sodium-dependent dopamine transporter (Q01959 whole entry): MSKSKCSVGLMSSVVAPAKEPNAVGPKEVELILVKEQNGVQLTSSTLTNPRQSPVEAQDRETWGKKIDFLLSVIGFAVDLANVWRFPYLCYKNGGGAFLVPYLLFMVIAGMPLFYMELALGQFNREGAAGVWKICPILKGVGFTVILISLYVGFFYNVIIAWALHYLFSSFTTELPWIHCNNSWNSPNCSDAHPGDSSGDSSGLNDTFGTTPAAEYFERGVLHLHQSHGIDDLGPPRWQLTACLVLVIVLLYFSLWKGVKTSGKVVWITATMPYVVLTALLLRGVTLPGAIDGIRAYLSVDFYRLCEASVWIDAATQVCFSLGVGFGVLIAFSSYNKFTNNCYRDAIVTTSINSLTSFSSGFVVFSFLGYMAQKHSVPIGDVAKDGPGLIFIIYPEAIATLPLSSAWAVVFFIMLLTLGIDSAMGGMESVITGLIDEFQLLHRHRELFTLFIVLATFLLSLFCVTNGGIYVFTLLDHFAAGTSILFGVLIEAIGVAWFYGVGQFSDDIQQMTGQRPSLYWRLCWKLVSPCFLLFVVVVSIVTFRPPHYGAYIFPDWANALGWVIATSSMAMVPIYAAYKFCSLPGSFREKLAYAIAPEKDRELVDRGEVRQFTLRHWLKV
SMILES,Ki (Mu-type opioid receptor),Ki [1],Ki [2],Ratio Ki (PC-12 [3]),Ki [4],Ki [5],Ki [6],Ki [7],Ki [8],Ki [9],Ki [10],Ki [11],Ki [12],Ki [13],Ki [14],Ki [15],Ki [16],Ki [17],Ki (D(1A) dopamine receptor),Ki (D(2) dopamine receptor),also measured
CN1CC[C@H]2CC(=O)[C@H](Cc3ccccc3)[C@H]3CCC[C@@H]1[C@H]23,> 10 µM,> 10 µM,0.0015 to 0.002 µM,98.7,> 10 µM,> 10 µM,> 10 µM,> 10 µM,> 10 µM,1.91 µM,1.68 µM,> 10 µM,> 10 µM,> 10 µM,> 10 µM,> 10 µM,> 10 µM,> 10 µM,> 10 µM,> 10 µM,Ki (D(1B) dopamine receptor): > 10 µM; Ki [18]: 2.18 µM; Ki [19]: > 10 µM; Ki (Histamine H1 receptor): > 10 µM; Ki (Histamine H2 receptor): > 10 µM; Ki [20]: > 10 µM; Ki [21]: > 10 µM; Ki [22]: > 10 µM; Ki [23]: > 10 µM; inhibition (PC-12 [24]): > 50%
CCCN1CC[C@H]2c3cc4ccc(C(F)(F)F)cc4nc3[C@H](CC)[C@H]3CCC[C@@H]1[C@@H]32,2.36 µM,0.416 µM,0.423 µM,0.04,> 10 µM,> 10 µM,> 10 µM,> 10 µM,> 10 µM,> 10 µM,> 10 µM,> 10 µM,> 10 µM,> 10 µM,> 10 µM,1.59 µM,1.04 µM,1.04 µM,> 10 µM,> 10 µM,Ki (D(1B) dopamine receptor): > 10 µM; Ki [18]: > 10 µM; Ki [19]: > 10 µM; Ki (Histamine H1 receptor): > 10 µM; Ki (Histamine H2 receptor): > 10 µM; Ki [20]: > 10 µM; Ki [21]: > 10 µM; Ki [22]: > 10 µM; Ki [23]: > 10 µM; inhibition (PC-12 [24]): > 50%
